For one series, the target named is T1, NK3R (Homo sapiens, UniProt P29371).
T1 construct: expressed in transfected cells; host or cells: CHO-K1 cells
T1 sequence (P29371 1-465): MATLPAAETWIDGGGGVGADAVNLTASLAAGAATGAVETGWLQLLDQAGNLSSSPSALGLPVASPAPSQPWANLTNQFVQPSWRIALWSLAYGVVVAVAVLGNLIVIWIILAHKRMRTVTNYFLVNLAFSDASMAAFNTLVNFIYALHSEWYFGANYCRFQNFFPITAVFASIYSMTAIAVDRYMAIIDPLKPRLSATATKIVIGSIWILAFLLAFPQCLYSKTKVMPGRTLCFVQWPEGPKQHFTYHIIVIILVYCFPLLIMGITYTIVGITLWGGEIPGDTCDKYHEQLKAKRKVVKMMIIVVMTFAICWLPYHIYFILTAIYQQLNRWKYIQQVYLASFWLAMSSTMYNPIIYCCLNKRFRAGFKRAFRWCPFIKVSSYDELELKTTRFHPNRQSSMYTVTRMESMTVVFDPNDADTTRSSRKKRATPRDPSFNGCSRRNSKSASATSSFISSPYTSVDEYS
Kind of series: Effect on activity of tachykinin receptor type 3 (intracellular calcium, fluorescence). In kind it is cell-based. The note with it: CHO-K1 cells expressing NK3R, agonist [MePhe10]-NKB 1 nM, read-out: IC50, antagonist of tachykinin receptor type 3. Here is the method: Compound I was dissolved in DMSO to a concentration of 100 mM; then the stock solution was serially diluted with DMSO. The maximal start concentration of substance is 100 μM. The effect was determined at 5 concentrations of test compounds, each concentration was investigated twice. CHO-K1 cells expressing NK3R were used in the experiment, said cells after the preincubation with an agonist [MePhe10]-NKB (1 nM) were incubated with the test compound. The activity of receptors was determined by the intracellular calcium concentration using fluorescence spectroscopy (Br J Pharmacol. 1999 October; 128(3):627-36).

Series [1] has as its target human recombinant μ-opioid receptor (Homo sapiens, UniProt P35372). Description: μ-opioid receptor radioligand displacement ([3H]DAMGO). The class given is binding.
In series [2] the target is recombinant human delta opioid receptor (Homo sapiens, UniProt P41143). Description: Delta-opioid receptor radioligand displacement ([3H]DADLE). In kind it is binding.
A further series concerns the target T2, TRPM8 ion channel (Homo sapiens, UniProt Q7Z2W7).
T2 construct: expressed in transfected cells; host or cells: HEK293 cells
Kind of series: Effect on activity of TRPM8 ion channel (Fluo-4 AM calcium). The class given is cell-based. The note with it: TRPM8 expressing HEK293 cells; Icilin 100 nM; intracellular calcium; read-out: IC50, blocker of TRPM8 ion channel. Here is the method: Compound I was dissolved in DMSO to a concentration of 100 mM; then the stock solution was diluted with DMSO to prepare a test solution with the concentration of substance equal to 50 μM. TRPM8 expressing HEK293 cells were used in the experiment. At the day of the experiment, the cells were incubated with a 4 μM of a solution of fluorescent indicator Fluo-4 AM. The cells after the preincubation with Icilin (100 nM), the known agonist of TRPM8 ion channel, were incubated with the test compound. The activity of receptors was determined by the intracellular calcium concentration using fluorescence spectroscopy (Behrendt, H. J. et al. (2004), Br. J. Pharmacol., 141: 737-745. FINAL).

The test system of another series is female balb/c mice. Description: Oxazolone-induced inflammatory bowel disease model. Conditions: scored at 72 hours, control 2.00 ± 0.21. The class given is in vivo. Here is the method: The study of the activity of Compound I on the oxazolone-induced inflammatory bowel disease model (ulcerative Colitis and Crohn's disease model) was carried out by means of a standard procedure (Heller F., Fuss I. J., Nieuwenhuis E. E., Blumberg R. S., Strober W. Oxazolone colitis, a Th2 colitis model resembling ulcerative colitis, is mediated by IL-13-producing NK-T cells//Immunity. 2002. P. 629-638).
The study was carried out on female balb/c mice. A 3.5 F catheter was introduced into the large intestine to a depth of 3-4 cm. Then, 150 μl of 1% oxazolone solution in 50% ethanol was slowly introduced into the colon lumen, the catheter was slowly removed and the mouse was kept in a vertical position (upside down) for 60 seconds to avoid the introduced solution flowing-out. Experimental animals were returned to the cages and the animal was kept in the warm. Compound I was administered intragastrically, three times: 1 hour, 25 hours and 49 hours after the rectal administration of oxazolone. 72 hours later after the rectal administration of oxazolone, the macroscopic assessment of intestinal wall damage is carried out with the help of score scale: 0 points—no lesions, 1 point—hyperemia, no ulcers, 2 points—hyperemia and thickening of the intestinal wall, no ulcers, 3 points—one ulcer without thickening of the intestine wall, 4 points—2 or more of the site of ulceration or inflammation, 5 points—2 or more severe sites of ulcerations and inflammation, or one site of ulceration/inflammation affecting >1 cm in length of the intestine, 6-10 points—the lesion affects >2 cm in length of the intestine, the score increases by 1 point per each 1 cm that is damaged.
For all data, descriptive statistics is applied: the arithmetic mean (M) and the standard error of the mean (m) are counted up. The normality of distribution of the values obtained in the course of the experiment was checked with the aid of the Shapiro-Wilk test. […] Distinctions were determined at 5% at a level of confidence.

Another series concerns male and female rats. Kind of series: Acute toxicity at single administration, rats. The class given is in vivo. Conditions: for Body weight gain / Death of animals: male and female; for Death of animals: 14 days observation. The procedure:
The acute toxicity study was performed on 24 male and 24 female rats, and also on 24 male and 24 female mice. Before the administration of the Compound I, the body weight of the animals was recorded, after 1 hour of the administration, the state of the experimental animals was observed. Then, the body weights of rats and mice were recorded daily for 14 days after the administration of the substance, and the examination was carried out to detect the cases of death and abnormality in the state of the animals.
Compound I was administered to rats and mice intragastrically at a dose of 5000 mg/kg, intraperitoneally—at a dose of 2000 mg/kg. Control groups (female and male objects) were received a solvent (0.1% Tween-80 solution in water).

SMILES strings stand for the structures.

human recombinant μ-opioid receptor, sequence (P35372 whole entry): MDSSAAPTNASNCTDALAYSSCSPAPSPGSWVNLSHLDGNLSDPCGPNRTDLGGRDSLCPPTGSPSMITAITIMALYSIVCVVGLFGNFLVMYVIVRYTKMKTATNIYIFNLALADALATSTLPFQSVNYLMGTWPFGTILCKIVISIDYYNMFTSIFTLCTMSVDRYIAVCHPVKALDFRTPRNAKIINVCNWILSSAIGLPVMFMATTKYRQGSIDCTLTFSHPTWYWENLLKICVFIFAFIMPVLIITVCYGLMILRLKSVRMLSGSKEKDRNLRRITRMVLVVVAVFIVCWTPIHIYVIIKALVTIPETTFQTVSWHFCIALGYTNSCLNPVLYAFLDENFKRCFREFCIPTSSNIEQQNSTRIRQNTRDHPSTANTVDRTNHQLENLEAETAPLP
T2 sequence (Q7Z2W7 whole entry): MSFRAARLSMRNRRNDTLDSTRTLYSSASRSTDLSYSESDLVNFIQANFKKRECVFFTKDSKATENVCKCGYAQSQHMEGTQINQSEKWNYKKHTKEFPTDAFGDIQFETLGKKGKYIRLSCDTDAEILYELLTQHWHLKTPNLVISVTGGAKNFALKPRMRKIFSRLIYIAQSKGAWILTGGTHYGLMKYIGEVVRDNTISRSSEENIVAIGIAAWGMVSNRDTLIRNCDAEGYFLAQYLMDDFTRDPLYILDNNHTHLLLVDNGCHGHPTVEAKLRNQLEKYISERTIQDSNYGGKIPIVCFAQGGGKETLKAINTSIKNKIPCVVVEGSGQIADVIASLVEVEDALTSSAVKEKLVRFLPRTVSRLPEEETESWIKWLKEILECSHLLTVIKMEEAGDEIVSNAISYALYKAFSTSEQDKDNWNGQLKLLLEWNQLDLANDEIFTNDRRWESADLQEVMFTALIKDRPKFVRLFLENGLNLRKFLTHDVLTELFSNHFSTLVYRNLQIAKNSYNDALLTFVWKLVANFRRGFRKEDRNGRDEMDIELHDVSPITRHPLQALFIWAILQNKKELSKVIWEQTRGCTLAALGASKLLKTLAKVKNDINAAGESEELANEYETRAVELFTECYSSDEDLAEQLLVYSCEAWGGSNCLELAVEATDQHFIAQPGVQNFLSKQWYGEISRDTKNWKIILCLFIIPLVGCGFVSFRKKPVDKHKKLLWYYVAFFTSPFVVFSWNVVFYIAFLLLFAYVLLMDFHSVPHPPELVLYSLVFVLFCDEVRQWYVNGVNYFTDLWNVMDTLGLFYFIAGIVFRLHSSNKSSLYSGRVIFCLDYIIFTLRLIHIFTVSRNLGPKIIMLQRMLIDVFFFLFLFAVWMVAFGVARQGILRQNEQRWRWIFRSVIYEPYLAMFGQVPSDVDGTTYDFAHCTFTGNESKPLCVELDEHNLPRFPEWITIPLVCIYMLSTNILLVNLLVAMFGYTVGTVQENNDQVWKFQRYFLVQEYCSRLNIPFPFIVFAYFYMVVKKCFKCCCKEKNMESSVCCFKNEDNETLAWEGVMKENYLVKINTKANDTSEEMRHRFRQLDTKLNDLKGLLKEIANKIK
recombinant human delta opioid receptor, sequence (P41143 whole entry): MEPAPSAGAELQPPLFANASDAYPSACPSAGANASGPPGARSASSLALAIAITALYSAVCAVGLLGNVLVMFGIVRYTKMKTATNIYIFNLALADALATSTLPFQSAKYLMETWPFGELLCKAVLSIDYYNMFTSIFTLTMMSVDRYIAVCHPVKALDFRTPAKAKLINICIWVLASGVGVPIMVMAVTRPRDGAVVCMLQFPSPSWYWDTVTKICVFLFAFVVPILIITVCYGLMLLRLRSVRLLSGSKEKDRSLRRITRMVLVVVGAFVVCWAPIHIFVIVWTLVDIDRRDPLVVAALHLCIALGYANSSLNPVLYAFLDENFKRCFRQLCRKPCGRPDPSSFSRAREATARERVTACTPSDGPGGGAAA

For the compound `O=C(Cc1ccc(O)cc1)N[C@@H](Cc1ccccc1)C(=O)NCCc1ccccc1` [Compound I, 2-phenylethylamide N-(p-hydroxyphenylacetyl)phenylalanine], the IC50 at NK3R amounted to 15 µM; in series [1], 4.1 µM; in series [2], 64 µM; at TRPM8 ion channel it was 62 µM. Further, the “The degree of colon wall damage” value is listed as 2.20 ± 0.96 points in the series with female balb/c mice (10 mg/kg, 1, 25 and 49 hours after oxazolone); 0.00 ± 0.00& points in the series on female balb/c mice (20 mg/kg intragastrically 1, 25 and 49 hours after oxazolone). Moreover, the “Differences in the spontaneous behaviour, responses to the caused reactions” value with male and female rats (intragastrically 5000 mg/kg, intraperitoneally 2000 mg/kg) is listed as “not observed”. The Body weight gain result with male and female rats (intragastrically 5000 mg/kg) was “lag in body weight gain”; with male and female rats (intraperitoneally 2000 mg/kg), “lag in body weight gain”. Besides, the Death of animals entry in the series with male and female rats (intragastrically 5000 mg/kg) is “did not cause death of animals”; in the series on male and female rats (intraperitoneally 2000 mg/kg), “did not cause death of animals”.
